12 compounds from publication PMC12662241, “New xanthone and chemical constituents from the aerial parts of Mallotus glomerulatus and their cytotoxicity in MCF-7 and MDA-MB-231 breast cancer cells” (ADMET & DMPK, 2025) can be followed below.

For orientation: viability means the share of living cells, or the viability signal relative to a control. Usually CC50 stands for the concentration that lowers cell viability or growth by half. In general, IC50 refers to the point on the concentration scale where inhibition reaches its midpoint.

Read-outs that look alike come from different tables or passages of the source. A value given as a limit tells only on which side of the number the result lay.

In data set [1] the test system is MCF-7 cells. Briefly: Primary screening, MTT cell viability, MCF-7. Particulars: for viability at 50 µM: Homo sapiens, MCF7, 72 h, read-out: MCF-7 cell viability, %, 50 μM, 72 h, MTT; for inhibition of viability of MCF-7 cells: primary single-concentration screening.
Experimental: (§1) MCF-7 cells were cultured in Dulbecco's Modified Eagle Medium/Nutrient Mixture F-12 (DMEM/F-12) (Gibco, New York, USA), which was supplemented with 10 % fetal bovine serum (FBS) (Gibco, New York, USA) and 1 % Penicillin-Streptomycin (P/S) (Gibco, New York, USA). MDA-MB-231 cells were cultured in DMEM high glucose (Gibco, New York, USA), supplemented with 10 % FBS and 1 % P/S.
(§2) MCF-7 cells were cultured in DMEM/F-12, while MDA-MB-231 cells were maintained in high-glucose DMEM. Both media were supplemented with 10 % foetal bovine serum (FBS) and 1 % penicillin/streptomycin (P/S). Cells were incubated for 24 h at 37 °C in a humidified atmosphere with 5 % CO2. […] Doxorubicin was used as a positive control. Following compound treatment, cells were incubated for 72 h under standard culture conditions. After treatment, the medium was replaced with serum-free medium containing 0.5 mg mL^-1 of 3-(4,5-dimethylthiazol-2-yl)-2,5-diphenyltetrazolium bromide (MTT), and cells were incubated for an additional 3 h. The MTT solution was then removed, and dimethyl sulfoxide (DMSO) was added to solubilize the formazan crystals. Absorbance was measured at 595 nm using a Microplate Spectrophotometer MR-850 BioPlate Reader (Biometrics Technologies, Wilmington, DE, USA). Compounds that reduced cell viability to ≤20 % compared to untreated controls were identified as hits for subsequent dose-response analysis. […] Treated cells were incubated for 72 h, followed by an MTT assay as described above. The absorbance at 595 nm was recorded, and IC50 values were determined using GraphPad Prism 9 (GraphPad Software, San Diego, CA, USA).
A further data set is described as follows: in vitro. Particulars: human, HepG2 cells.
For data set [2], the system named is MCF-7 cells. Briefly: Secondary screening (dose-response), MTT assay, MCF-7. Particulars: read-out: IC50 MCF-7. The class given is cell-based, human. In general terms: Formazan colour is commonly taken as a measure of viable cells.
Experimental: as §1, §2
The subject of data set [3] is MDA-MB-231 cells. Briefly: Secondary screening (dose-response), MTT assay, MDA-MB-231. The class given is cell-based, human. Particulars: read-out: IC50 MDA-MB-231.
Experimental: as §1, §2
Data set [4] relates to MDA-MB-231 cells. Briefly: Primary screening, MTT cell viability, MDA-MB-231. Particulars: for viability at 50 µM: Homo sapiens, MDA-MB-231, 72 h, read-out: MDA-MB-231 cell viability, %, 50 μM, 72 h, MTT.
Experimental: as §1, §2
The subject of another data set is HepG2 cells. Particulars: for SI (CC50/IC50) HepG2: MDA-MB-231: ratio of CC50 in HepG2 to IC50 in MDA-MB-231; for SI (CC50/IC50) HepG2: MCF-7: ratio of CC50 in HepG2 to IC50 in MCF-7.
The test system of data set [5] is MCF-7 cells. Particulars: 50 µM.
Experimental: as §1, §2
For data set [6], the system named is MDA-MB-231 cells. Particulars: 50 µM.
Experimental: as §1, §2

Experimental for HepG2 cells: (§3) The human liver cells (HepG2 cells) were seeded into a 96-well plate at a cell density of 10^4 cells/well and were incubated with DMEM/F-12 with 10 % FBS and 1 % P/S for 24 hours in an incubator (37 °C and 5 % CO2). […] Then, they were additionally incubated for 72 hours. After 72 hours of incubation, the culture media containing the compounds were removed, and serum-free media containing MTT was added instead, with an additional 3 hours of incubation at 37 °C and 5 % CO2. After 3 hours of incubation, the MTT-containing media was removed and DMSO was added to the assay plates, resulting in different shades of purple colour measured by Microplate Spectrophotometer MR-850 BioPlate Reader. The calculation of CC50 was analysed by using GraphPad Prism 9.
Experimental for in vitro: as §3

`COc1cc2c(O[C@@H]3OC[C@@H](OC)[C@H](OC)[C@H]3O)c3c(c(-c4ccc5c(c4)OCO5)c2cc1OC)C(=O)OC3` [Compound 10, cleistanthin A]: the values for the viability at 50 µM in the data set with MCF-7 cells [1] (mean ± SEM) and in the data set with MDA-MB-231 cells [4] (mean ± SEM) were 1.72 ± 0.23% and 8.85 ± 0.73%, respectively. Besides, in the data set with MCF-7 cells [1] (50 μM, 72 h), the “inhibition of viability of MCF-7 cells” value was “more than 80%”. In addition, the CC50 at 72 h in the data set “in vitro” stood at 5370 nM. For the same compound, the IC50 in the data set on MCF-7 cells [2] (Homo sapiens, MCF7, 72 h) is 540 nM; in the data set on MDA-MB-231 cells [3] (Homo sapiens, MDA-MB-231, 72 h), 20 nM. In addition, the “inhibition of viability of MDA-MB-231 cells” value in the data set on MDA-MB-231 cells [4] (primary single-concentration screening, 50 μM, 72 h) was “more than 80%”. In addition, the entries for the “SI (CC50/IC50) HepG2: MDA-MB-231” value in the data set with HepG2 cells and in the data set with HepG2 cells (listed as cleistanthin A) were 268.50 and above 100, respectively.
On to “(3,4,5)-trihydroxy-6-methoxy-2,7-bis(3-methylbut-2-en-1-yl)-9H-xanthen-9-one [Compound 1]”, for which the “MCF-7 cell viability, %” value in the data set with MCF-7 cells [1] (50 μM, 72 h, MTT, mean ± SEM) was 1.60 ± 0.10%. Also, in the data set on MCF-7 cells [1] (50 μM, 72 h), the “inhibition of viability of MCF-7 cells” value was “more than 80%”. Also, the IC50 in the data set on MCF-7 cells [2] (72 h, MTT, mean ± SD) was 28300 nM; in the data set with MDA-MB-231 cells [3] (72 h, MTT, mean ± SD), 34200 nM. For the same compound, the “MDA-MB-231 cell viability, %” value in the data set on MDA-MB-231 cells [4] (50 μM, 72 h, MTT, mean ± SEM) is recorded as 59.00 ± 3.33%. For the same compound, the CC50 in the data set with HepG2 cells (read-out: CC50 HepG2, 72 h, MTT) is 32800 nM.
On to `O=C1C[C@@H](c2ccccc2)Oc2cc(O)cc(O)c21` [Compound 6, pinocembrin], for which the viability at 50 µM with MCF-7 cells [1] (mean ± SEM) amounted to 95.6 ± 2.96%; in the data set on MDA-MB-231 cells [4] (mean ± SEM), 74.4 ± 2.32%.
For `CC1(C)C(=O)C=C[C@]2(C)[C@@H]1CC[C@@]13C[C@@H](CC[C@H]12)C(O)(CO)C3` (stereo partly drawn) [Compound 4, anomaluone] the same measures were 72.7 ± 4.68% and 53.8 ± 1.88%.
For the compound 3,6-phenanthrenedione [Compound 5], the “MCF-7 cell viability, %” value with MCF-7 cells [5] is on record as 75.58 ± 4.26%. The “MDA-MB-231 cell viability, %” value in the data set on MDA-MB-231 cells [6] is recorded as 68.01 ± 3.88%.
As for `COc1cccc2c1C(=O)c1c(O)c3c(c(O)c1C2=O)C[C@@](O)(C(=O)CO)C[C@@H]3O[C@H]1C[C@H](N)[C@H](O)[C@H](C)O1` [Doxorubicin, reference compound], the viability at 50 µM in the data set on MCF-7 cells [1] (mean ± SEM) is 4.02 ± 0.24%; in the data set with MDA-MB-231 cells [4] (mean ± SEM), 4.72 ± 1.07%. In addition, the CC50 at 72 h in “in vitro” is 550 nM. The IC50 in the data set on MCF-7 cells [2] (Homo sapiens, MCF7, 72 h, MTT, mean ± SD) is 660 nM; with MDA-MB-231 cells [3] (Homo sapiens, MDA-MB-231, 72 h, MTT, mean ± SD), 980 nM. The “SI (CC50/IC50) HepG2: MCF-7” value with HepG2 cells (listed as DoxorubICin) is listed as 0.83; with HepG2 cells (listed as doxorubicin) it was “below 1”. Besides, the “SI (CC50/IC50) HepG2: MDA-MB-231” value with HepG2 cells (listed as DoxorubICin) is listed as 0.56; in the data set on HepG2 cells (listed as doxorubicin) it was “below 1”.
On to `COc1cc(-c2cc(=O)c3c(O)c(OC)c(OC)cc3o2)cc(OC)c1OC` [Compound 8, 5-hydroxy-6,7,3',4',5'-pentamethoxyflavone], for which the viability at 50 µM in the data set on MCF-7 cells [1] (mean ± SEM) was determined as 63.1 ± 1.83%; in the data set on MDA-MB-231 cells [4] (mean ± SEM), 44.7 ± 1.93%.
Turning to `CC(=O)c1ccc(O)cc1` [Compound 11, 4-hydroxyacetophenone], the viability at 50 µM was determined as 85.2 ± 4.2% in the data set with MCF-7 cells [1] (mean ± SEM) and 50.2 ± 2.73% in the data set on MDA-MB-231 cells [4] (mean ± SEM).
For `C=C[C@@]1(C)C[C@H]2C[C@H](O)[C@]3(O)[C@@H](CCCC3(C)C)[C@]2(C)CC1=O` [Compound 2, glomerulatusin] the same measures were 77.7 ± 4.87% and 56.3 ± 2.17%.
For `O=c1cc(-c2ccccc2)oc2cc(O)cc(O)c12` [Compound 9, chrysin] the same measures were 76.7 ± 3.4% and 64.5 ± 1.19%.
Consider `C[C@H]1C(=O)CC[C@@H]2[C@]1(C)CC[C@H]1[C@@]2(C)CC[C@@]2(C)[C@@H]3CC(C)(C)CC[C@]3(C)CC[C@]12C` [Compound 3, friedelin], for which the viability at 50 µM was 79.2 ± 4.29% in the data set with MCF-7 cells [1] (mean ± SEM) and 68.1 ± 2.96% with MDA-MB-231 cells [4] (mean ± SEM).
For `COc1cc(O)c2c(c1)O[C@H](c1ccccc1)CC2=O` [Compound 7, pinostrobin], the viability at 50 µM in the data set with MCF-7 cells [1] (mean ± SEM) was found to be 88.5 ± 4.12%; with MDA-MB-231 cells [4] (mean ± SEM), 61.6 ± 3.69%.
